Test results taken from patent US20150004134A1, “TREATMENT OF CANCER WITH HETEROCYCLIC INHIBITORS OF GLUTAMINASE” (Calithera Biosciences, Inc., priority 2012, published 2015).
Read-outs that look alike come from different tables or passages of the source.

Experiments:
[1] = molecular target: T1, recombinant form of Glutaminase 1 (GAC) (Homo sapiens, UniProt O94925); assay: Recombinant Enzyme Assay - Time Dependence (60 min preincubation); assay type: biochemical
T1 sequence (O94925 137-598 isoform O94925-3 limits assumed): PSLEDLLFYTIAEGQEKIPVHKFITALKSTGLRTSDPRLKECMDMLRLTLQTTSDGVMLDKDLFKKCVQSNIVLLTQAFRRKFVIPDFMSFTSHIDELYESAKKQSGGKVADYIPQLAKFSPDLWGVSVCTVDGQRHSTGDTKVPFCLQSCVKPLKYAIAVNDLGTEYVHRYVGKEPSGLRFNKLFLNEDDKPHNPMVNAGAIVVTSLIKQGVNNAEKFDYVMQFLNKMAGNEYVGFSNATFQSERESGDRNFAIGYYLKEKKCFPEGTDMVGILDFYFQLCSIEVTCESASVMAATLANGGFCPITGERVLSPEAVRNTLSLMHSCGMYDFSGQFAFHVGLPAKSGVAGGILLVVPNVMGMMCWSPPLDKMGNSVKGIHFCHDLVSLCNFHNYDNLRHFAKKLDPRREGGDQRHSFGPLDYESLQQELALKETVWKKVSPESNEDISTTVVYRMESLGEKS
Experimental: The enzyme/compound mix was sealed with sealing foil (USA Scientific) and allowed to incubate, with mild agitation, for 60 minutes at 20° C. Enzymatic reaction was started with the addition of 50 μL of substrate solution (50 mM Tris-HCl pH 8.0, 0.2 mM EDTA, 150 mM K2HPO4, 0.1 mg/ml BSA, 1 mM DTT, 20 mM L-glutamine, 2 mM NAD^+, and 10 ppm antifoam) and read in a Molecular Devices M5 plate reader at 20° C. The plate reader was configured to read absorbance (=340 nm) in kinetic mode for 15 minutes. Data was recorded as milli-absorbance units per minute and slopes were compared to a control compound and a DMSO-only control on the same plate. Compounds with slopes less than the DMSO control were considered inhibitors and plate variability was assessed using the control compound.

[2] = tested on: P493-6 (myc "on") cells; assay: Cell Proliferation Assay; assay type: cell-based; conditions: P493-6, 72 h, read-out: Cell prolif P493 72 h IC50, P493-6 cells, 72 h
Summary of the method: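 P493-6 cells with myc on, 10,000 per well in RPMI/10% FBS, exposed to serially diluted compound (0.5% DMSO final) for 72 h at 37 °C, 5% CO2. Antiproliferative effect read by Cell Titer Glo luminescence or Viacount FACS viability count.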

[3] = read-out: GAC Delta N2 IC50 60 min preinc

## CN(C)CC(=O)NCc1cccc(CC(=O)Nc2nnc(CCCCc3ccc(NC(=O)Cc4ccccc4)nn3)s2)c1 [Compound 434]
[1]; [3]
  IC50: 5 nM
[2]
  IC50: 17 nM

## CC(C)CNC(=O)Cc1cccc(CC(=O)Nc2nnc(CCCCc3ccc(NC(=O)Cc4ccccc4)nn3)s2)c1 [Compound 470]
[1]; [3]
  IC50: 3 nM
[2]
  IC50: 9 nM

## CCNC(=O)Nc1nnc(CCCCc2ccc(NC(=O)Cc3ccccc3)nn2)s1 [Compound 418]
[1]; [3]
  IC50: 140 nM
[2]
  IC50: 320 nM

## COc1cccc(CC(=O)Nc2ccc(CCCCc3nnc(NC(=O)Cc4cccc(OC(F)(F)F)c4)s3)nn2)c1 [Compound 617]
[1]; [3]
  IC50: 5 nM
[2]
  IC50: 40 nM

## CCNC(=O)OC(C)c1cccc(CC(=O)Nc2ccc(CCCCc3nnc(NC(=O)Cc4cccc(OC(F)(F)F)c4)s3)nn2)c1 (stereo not shown) [Compound 596]
[1]; [3]
  IC50: 15 nM
[2]
  IC50: 330 nM

## CN1CCC(Oc2cccc(CC(=O)Nc3nnc(CCCCc4ccc(NC(=O)Cc5ccccc5)nn4)s3)c2)CC1 [Compound 551]
[1]; [3]
  IC50: 10 nM
[2]
  IC50: 127 nM

## CC(C)(C)NC(=O)Cc1cccc(CC(=O)Nc2ccc(CCCCc3nnc(NC(=O)Cc4ccccc4)s3)nn2)c1 [Compound 542]
[1]; [3]
  IC50: 4 nM
[2]
  IC50: 43 nM

## CC(NC(=O)OC(C)(C)C)c1cccc(CC(=O)Nc2ccc(CCCCc3nnc(NC(=O)Cc4ccccc4)s3)nn2)c1 (stereo not shown) [Compound 543]
[1]; [3]
  IC50: 4 nM
[2]
  IC50: 5 nM

## CC(=O)NC(C)c1cccc(CC(=O)Nc2ccc(CCCCc3nnc(NC(=O)Cc4ccccc4)s3)nn2)c1 (stereo not shown) [Compound 590]
[1]; [3]
  IC50: 7 nM
[2]
  IC50: 87 nM

## O=C(Cc1ccccc1)Nc1ccc(CCCCc2nnc(NC(=O)Cc3cccc(CC(=O)N4CCC4)c3)s2)nn1 [Compound 487]
[1]; [3]
  IC50: 5 nM
[2]
  IC50: 42 nM

## CCC(O)C(=O)NCc1cccc(CC(=O)Nc2nnc(CCCCc3ccc(NC(=O)Cc4ccccc4)nn3)s2)c1 (stereo not shown) [Compound 575]
[1]; [3]
  IC50: 7 nM
[2]
  IC50: 40 nM

## O=C(Cc1cccc(OCCO)c1)Nc1ccc(CCCCc2nnc(NC(=O)Cc3ccccc3)s2)nn1 [Compound 502]
[1]; [3]
  IC50: 7 nM
[2]
  IC50: 75 nM

## CC(C)(C)OC(=O)N1Cc2cccc(CC(=O)Nc3nnc(CCCCc4ccc(NC(=O)Cc5ccccc5)nn4)s3)c2C1 [Compound 608]
[1]; [3]
  IC50: 7 nM
[2]
  IC50: 37 nM

## CN(C)CC(=O)Nc1ccc(CC(=O)Nc2nnc(CCCCc3ccc(NC(=O)Cc4ccccc4)nn3)s2)cc1 [Compound 430]
[1]; [3]
  IC50: 9 nM
[2]
  IC50: 27 nM

## CC(C)CC(=O)NC(C)c1cccc(CC(=O)Nc2ccc(CCCCc3nnc(NC(=O)Cc4ccccc4)s3)nn2)c1 (stereo not shown) [Compound 625]
[1]
  IC50: 4 nM
[2]
  IC50: 6 nM

## CCNC(=O)OC(C)c1cccc(CC(=O)Nc2ccc(CCCCc3nnc(NC(=O)C(C)c4ccccc4)s3)nn2)c1 (stereo not shown) [Compound 594]
[1]; [3]
  IC50: 7 nM
[2]
  IC50: 50 nM

## NCc1cccc(CC(=O)Nc2nnc(CCCCc3ccc(NC(=O)C(O)c4cccc(Cl)c4)nn3)s2)c1 (stereo not shown) [Compound 423]
[1]; [3]
  IC50: 22 nM
[2]
  IC50: 42 nM

## COc1cc(CC(=O)Nc2nnc(CCCCc3ccc(NC(=O)Cc4ccccc4)nn3)s2)cc(OC)c1 [Compound 398]
[1]; [3]
  IC50: 4 nM
[2]
  IC50: 23 nM

## CCOC(=O)NCc1cccc(CC(=O)Nc2ccc(CCCCc3nnc(NC(=O)C(OC)c4ccccc4)s3)nn2)c1 (stereo not shown) [Compound 609]
[1]; [3]
  IC50: 9 nM
[2]
  IC50: 14 nM

## COc1ccc(CC(=O)Nc2nnc(CCCCc3ccc(NC(=O)Cc4ccccc4)nn3)s2)cc1C [Compound 550]
[1]; [3]
  IC50: 5 nM
[2]
  IC50: 36 nM

## CC(C)(N)c1cccc(CC(=O)Nc2nnc(CCCCc3ccc(NC(=O)Cc4ccccc4)nn3)s2)c1 [Compound 632]
[1]
  IC50: 10 nM
[2]
  IC50: 200 nM

## CCOC(=O)NCc1cccc(CC(=O)Nc2ccc(CCCCc3nnc(NC(=O)C(C)c4ccccc4)s3)nn2)c1 (stereo not shown) [Compound 555]
[1]; [3]
  IC50: 4 nM
[2]
  IC50: 10 nM

## O=C(Cc1ccccc1)Nc1ccc(CCCCc2nnc(NC(=O)Cc3cc(F)cc(C(F)(F)F)c3)s2)nn1 [Compound 414]
[1]; [3]
  IC50: 10 nM
[2]
  IC50: 58 nM

## CC(O)(CC(=O)NCc1cccc(CC(=O)Nc2nnc(CCCCc3ccc(NC(=O)Cc4ccccc4)nn3)s2)c1)C(F)(F)F (stereo not shown) [Compound 579]
[1]; [3]
  IC50: 4 nM
[2]
  IC50: 9 nM

## CC(C)CN(C)C(=O)Cc1cccc(CC(=O)Nc2nnc(CCCCc3ccc(NC(=O)Cc4ccccc4)nn3)s2)c1 [Compound 485]
[1]; [3]
  IC50: 4 nM
[2]
  IC50: 12 nM

## CC(=O)Nc1ccc(CCCCc2nnc(NC(=O)Cc3cccc(CN)c3)s2)nn1 [Compound 425]
[1]; [3]
  IC50: 86 nM
[2]
  IC50: 15 nM

## COc1cccc(CNC(=O)Nc2nnc(CCCCc3nnc(NC(=O)Cc4ccccc4)s3)s2)c1 [Compound 416]
[1]; [3]
  IC50: 55 nM
[2]
  IC50: 350 nM

## O=C(Cc1cccs1)Nc1ccc(CCCCc2nnc(NC(=O)Cc3ccccc3)s2)nn1 [Compound 499]
[1]; [3]
  IC50: 10 nM
[2]
  IC50: 190 nM

## O=C(Cc1ccccc1)Nc1ccc(CCCCc2nnc(NC(=O)Cc3cccc(C(F)(F)F)c3)s2)nn1 [Compound 546]
[1]; [3]
  IC50: 5 nM
[2]
  IC50: 27 nM

## CC(N)c1cc(CC(=O)Nc2ccc(CCCCc3nnc(NC(=O)Cc4ccccc4)s3)nn2)ccc1F (stereo not shown) [Compound 656]
[1]; [3]
  IC50: 18 nM
[2]
  IC50: 400 nM

## Nc1ccc(CC(=O)Nc2nnc(CCCCc3ccc(NC(=O)Cc4ccccc4)nn3)s2)cc1 [Compound 410]
[1]; [3]
  IC50: 9 nM
[2]
  IC50: 57 nM

## O=C(Cc1cccc2c1CNC2)Nc1ccc(CCCCc2nnc(NC(=O)Cc3cccc(OC(F)(F)F)c3)s2)nn1 [Compound 649]
[1]; [3]
  IC50: 4 nM
[2]
  IC50: 34 nM

## CC(C)(C)OC(=O)Nc1ccc(CC(=O)Nc2nnc(CCCCc3ccc(NC(=O)Cc4ccccc4)nn3)s2)cc1 [Compound 400]
[1]; [3]
  IC50: 15 nM
[2]
  IC50: 53 nM

## CC(C)(O)Cc1cccc(CC(=O)Nc2nnc(CCCCc3ccc(NC(=O)Cc4ccccc4)nn3)s2)c1 [Compound 513]
[1]
  IC50: 7 nM
[2]
  IC50: 22 nM

## O=C(Cc1ccccc1F)Nc1ccc(CCCCc2nnc(NC(=O)Cc3ccccc3)s2)nn1 [Compound 520]
[1]; [3]
  IC50: 7 nM
[2]
  IC50: 56 nM

## CC(N)c1cc(CC(=O)Nc2nnc(CCCCc3ccc(NC(=O)Cc4ccccc4)nn3)s2)ccc1F (stereo not shown) [Compound 655]
[1]; [3]
  IC50: 19 nM
[2]
  IC50: 350 nM

## CCOc1cc(CC(=O)Nc2nnc(CCCCc3ccc(NC(=O)Cc4ccccc4)nn3)s2)ccc1O [Compound 556]
[1]; [3]
  IC50: 5 nM
[2]
  IC50: 120 nM

## CC(C)(C)OC(=O)N1Cc2cccc(CC(=O)Nc3ccc(CCCCc4nnc(NC(=O)Cc5cccc(OC(F)(F)F)c5)s4)nn3)c2C1 [Compound 612]
[1]; [3]
  IC50: 65 nM
[2]
  IC50: 100 nM

## CC(NC(=O)C(F)(F)F)c1cccc(CC(=O)Nc2ccc(CCCCc3nnc(NC(=O)Cc4ccccc4)s3)nn2)c1 (stereo not shown) [Compound 622]
[1]; [3]
  IC50: 4 nM
[2]
  IC50: 10 nM

## O=C(O)Cc1cccc(CC(=O)Nc2nnc(CCCCc3ccc(NC(=O)Cc4ccccc4)nn3)s2)c1 [Compound 465]
[1]; [3]
  IC50: 6 nM
[2]
  IC50: 920 nM

## CC(C)CC(=O)NCc1cccc(CC(=O)Nc2nnc(CCCCc3ccc(NC(=O)Cc4ccccc4)nn3)s2)c1 [Compound 433]
[1]; [3]
  IC50: 2 nM
[2]
  IC50: 7 nM

## O=C(Cc1ccccc1)Nc1ccc(CCCCc2nnc(NC(=O)Cc3cccc(Oc4ccccc4)c3)s2)nn1 [Compound 450]
[1]; [3]
  IC50: 6 nM
[2]
  IC50: 42 nM

## COC(=O)NC(C)c1cccc(CC(=O)Nc2nnc(CCCCc3ccc(NC(=O)Cc4ccccc4)nn3)s2)c1 (stereo not shown) [Compound 561]
[1]; [3]
  IC50: 4 nM
[2]
  IC50: 4 nM

## CC1(C)OCC(C)(C(=O)NCc2cccc(CC(=O)Nc3nnc(CCCCc4ccc(NC(=O)Cc5ccccc5)nn4)s3)c2)CO1 [Compound 580]
[1]; [3]
  IC50: 5 nM
[2]
  IC50: 13 nM

## CCOC(=O)NC(C)c1cccc(CC(=O)Nc2ccc(CCCCc3nnc(NC(=O)C(C)c4ccccc4)s3)nn2)c1 (stereo not shown) [Compound 602]
[1]; [3]
  IC50: 6 nM
[2]
  IC50: 36 nM

## CN(C)Cc1cccc(CC(=O)Nc2nnc(CCCCc3ccc(NC(=O)Cc4ccccc4)nn3)s2)c1 [Compound 406]
[1]; [3]
  IC50: 16 nM
[2]
  IC50: 270 nM

## CCN(C)C(=O)Cc1cccc(CC(=O)Nc2nnc(CCCCc3ccc(NC(=O)Cc4ccccc4)nn3)s2)c1 [Compound 486]
[1]; [3]
  IC50: 4 nM
[2]
  IC50: 24 nM

## CC(NC(=O)CC(F)(F)F)c1cccc(CC(=O)Nc2ccc(CCCCc3nnc(NC(=O)Cc4ccccc4)s3)nn2)c1 (stereo not shown) [Compound 624]
[1]
  IC50: 4 nM
[2]
  IC50: 9 nM

## CC(C)(C)CNC(=O)Cc1cccc(CC(=O)Nc2nnc(CCCCc3ccc(NC(=O)Cc4ccccc4)nn3)s2)c1 [Compound 471]
[1]; [3]
  IC50: 3 nM
[2]
  IC50: 6 nM

## O=C(CN1CCOCC1)Nc1cccc(CC(=O)Nc2nnc(CCCCc3ccc(NC(=O)Cc4ccccc4)nn3)s2)c1 [Compound 440]
[1]; [3]
  IC50: 8 nM
[2]
  IC50: 31 nM
